In brackets after ≈: the same amount, converted by molar mass. Activity calls are given as the source filed them. The rule behind the calls is not given here.
What was measured:
[1] = Inhibition of Escherichia coli NDM-1 using fluorocillin as substrate incubated for 30 mins by fluorescence based assay
[2] = Inhibition of Escherichia coli IMP-7 using fluorocillin as substrate incubated for 30 mins by fluorescence based assay
BlaVIM-1 = BlaVIM-1 (Escherichia coli, UniProt Q8GDC1); assay: Inhibition of Escherichia coli VIM-1 using fluorocillin as substrate incubated for 30 mins by fluorescence based assay
[3] = Lipophilicity, log D of the compound at pH 7.4 by HPLC-MS analysis; format: physicochemical; conditions: buffer
[4] = target: T1, Interstitial collagenase (Homo sapiens) (UniProt P03956); assay: Inhibition of human MMP-1 at 100 uM relative to control
T1 sequence (whole entry): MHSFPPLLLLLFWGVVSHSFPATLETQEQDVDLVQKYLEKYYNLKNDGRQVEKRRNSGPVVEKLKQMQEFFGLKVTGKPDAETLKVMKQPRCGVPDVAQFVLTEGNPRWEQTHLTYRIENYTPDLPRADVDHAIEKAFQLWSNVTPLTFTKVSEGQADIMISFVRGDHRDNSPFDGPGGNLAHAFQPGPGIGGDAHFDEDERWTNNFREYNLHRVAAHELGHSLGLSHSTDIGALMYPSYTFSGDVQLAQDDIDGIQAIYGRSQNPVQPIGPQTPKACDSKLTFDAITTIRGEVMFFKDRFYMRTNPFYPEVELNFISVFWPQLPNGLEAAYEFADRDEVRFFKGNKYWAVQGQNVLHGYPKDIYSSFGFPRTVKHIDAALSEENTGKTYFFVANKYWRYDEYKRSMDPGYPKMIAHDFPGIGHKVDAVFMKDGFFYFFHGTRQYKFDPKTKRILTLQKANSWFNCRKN

[5] = target: T2, 72 kDa type IV collagenase (Homo sapiens, UniProt P08253); assay: Inhibition of human MMP-2 at 100 uM relative to control
Target sequence in this assay (P08253 110-660 limits assumed): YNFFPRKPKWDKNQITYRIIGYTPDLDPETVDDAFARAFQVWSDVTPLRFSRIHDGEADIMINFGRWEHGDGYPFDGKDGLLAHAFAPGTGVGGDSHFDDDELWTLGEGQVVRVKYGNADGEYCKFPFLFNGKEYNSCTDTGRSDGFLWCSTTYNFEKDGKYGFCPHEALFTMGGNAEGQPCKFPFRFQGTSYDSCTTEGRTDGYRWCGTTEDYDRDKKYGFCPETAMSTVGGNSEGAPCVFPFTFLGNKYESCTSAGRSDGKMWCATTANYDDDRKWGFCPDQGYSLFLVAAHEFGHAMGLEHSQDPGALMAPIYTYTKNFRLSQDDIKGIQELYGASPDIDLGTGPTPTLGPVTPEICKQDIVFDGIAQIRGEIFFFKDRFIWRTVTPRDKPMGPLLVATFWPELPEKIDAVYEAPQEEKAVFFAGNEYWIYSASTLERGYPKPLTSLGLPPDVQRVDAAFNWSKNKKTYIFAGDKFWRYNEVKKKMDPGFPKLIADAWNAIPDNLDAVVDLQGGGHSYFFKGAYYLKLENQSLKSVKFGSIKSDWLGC

[6] = target: Stromelysin-1 (Homo sapiens) (UniProt P08254); assay: Inhibition of human MMP-3 at 100 uM relative to control
Sequence of Stromelysin-1 (Homo sapiens) (P08254 100-477 limits assumed): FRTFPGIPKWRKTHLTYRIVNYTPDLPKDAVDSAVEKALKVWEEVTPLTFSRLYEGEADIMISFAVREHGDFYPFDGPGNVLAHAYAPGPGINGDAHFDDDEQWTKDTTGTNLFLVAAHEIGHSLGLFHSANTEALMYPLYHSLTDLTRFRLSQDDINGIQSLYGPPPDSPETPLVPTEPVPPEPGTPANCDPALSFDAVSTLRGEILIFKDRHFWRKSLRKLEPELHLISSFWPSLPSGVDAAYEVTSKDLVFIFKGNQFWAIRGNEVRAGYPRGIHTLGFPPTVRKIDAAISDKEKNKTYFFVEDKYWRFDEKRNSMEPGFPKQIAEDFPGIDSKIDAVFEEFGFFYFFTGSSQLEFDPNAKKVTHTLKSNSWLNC

[7] = target: T3, Matrilysin (Homo sapiens) (UniProt P09237); assay: Inhibition of human MMP-7 at 100 uM relative to control
T3 sequence (whole entry): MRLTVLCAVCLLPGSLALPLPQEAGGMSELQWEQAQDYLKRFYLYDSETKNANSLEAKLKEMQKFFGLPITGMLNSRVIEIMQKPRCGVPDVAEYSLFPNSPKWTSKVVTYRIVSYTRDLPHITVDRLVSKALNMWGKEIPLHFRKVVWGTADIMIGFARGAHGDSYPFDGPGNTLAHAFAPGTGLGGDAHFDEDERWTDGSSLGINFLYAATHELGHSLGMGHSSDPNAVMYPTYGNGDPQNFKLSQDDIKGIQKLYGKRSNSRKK

[8] = target: Neutrophil collagenase (Homo sapiens) (UniProt P22894); assay: Inhibition of human MMP-8 at 100 uM relative to control
Sequence of Neutrophil collagenase (Homo sapiens) (P22894 101-467 limits assumed): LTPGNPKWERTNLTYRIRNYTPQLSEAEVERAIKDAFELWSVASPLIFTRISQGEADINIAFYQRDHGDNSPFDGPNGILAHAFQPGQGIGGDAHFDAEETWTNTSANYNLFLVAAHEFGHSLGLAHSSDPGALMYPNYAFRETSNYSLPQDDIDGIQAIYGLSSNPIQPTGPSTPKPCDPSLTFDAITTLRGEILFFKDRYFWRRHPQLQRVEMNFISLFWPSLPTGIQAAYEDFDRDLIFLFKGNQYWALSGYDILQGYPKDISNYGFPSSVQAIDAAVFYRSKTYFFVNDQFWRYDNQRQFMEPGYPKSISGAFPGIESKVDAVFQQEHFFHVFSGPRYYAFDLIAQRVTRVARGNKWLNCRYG

[9] = target: T4, Matrix metalloproteinase-14 (Homo sapiens, UniProt P50281); assay: Inhibition of human MMP-14 at 100 uM relative to control
[10] = target: Disintegrin and metalloproteinase domain-containing protein 17 (Homo sapiens) (UniProt P78536); assay: Inhibition of human TACE at 100 uM relative to control
Sequence of Disintegrin and metalloproteinase domain-containing protein 17 (Homo sapiens) (P78536 whole entry, the tested form may be a part): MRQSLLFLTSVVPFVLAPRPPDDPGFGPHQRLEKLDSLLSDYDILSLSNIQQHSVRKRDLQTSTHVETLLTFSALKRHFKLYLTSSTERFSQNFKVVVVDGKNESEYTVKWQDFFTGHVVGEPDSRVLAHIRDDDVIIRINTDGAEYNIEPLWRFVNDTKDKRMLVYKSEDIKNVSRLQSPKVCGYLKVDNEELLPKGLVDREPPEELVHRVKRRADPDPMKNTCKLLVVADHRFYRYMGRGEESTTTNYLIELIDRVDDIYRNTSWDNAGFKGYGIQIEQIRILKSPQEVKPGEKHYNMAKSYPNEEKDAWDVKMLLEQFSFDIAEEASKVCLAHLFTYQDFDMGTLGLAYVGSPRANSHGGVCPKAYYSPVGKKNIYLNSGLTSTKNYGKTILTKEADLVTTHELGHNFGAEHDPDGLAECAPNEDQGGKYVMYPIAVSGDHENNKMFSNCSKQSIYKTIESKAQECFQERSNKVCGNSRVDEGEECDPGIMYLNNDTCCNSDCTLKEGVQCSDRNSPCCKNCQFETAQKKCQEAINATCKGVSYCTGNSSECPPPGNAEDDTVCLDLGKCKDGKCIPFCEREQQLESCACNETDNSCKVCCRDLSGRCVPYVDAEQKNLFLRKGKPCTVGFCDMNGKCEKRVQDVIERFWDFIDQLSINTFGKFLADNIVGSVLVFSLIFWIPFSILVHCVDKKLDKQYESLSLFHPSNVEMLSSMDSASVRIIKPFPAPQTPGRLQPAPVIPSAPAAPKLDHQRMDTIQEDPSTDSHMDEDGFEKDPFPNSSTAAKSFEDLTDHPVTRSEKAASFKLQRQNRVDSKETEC

Escherichia coli [11] = assay: Antibacterial activity against NDM-1 expressing Escherichia coli isolates assessed as inhibition of bacterial growth by microdilution method; format: functional, organism-based
Escherichia coli [12] = assay: Antibacterial activity against VIM-1 expressing Escherichia coli isolates assessed as inhibition of bacterial growth by microdilution method; format: functional, organism-based
Escherichia coli [13] = assay: Antibacterial activity against IMP-1 expressing Escherichia coli isolates assessed as inhibition of bacterial growth by microdilution method; format: functional, organism-based
Pseudomonas aeruginosa [14] = assay: Antibacterial activity against VIM-2 expressing Pseudomonas aeruginosa isolates assessed as inhibition of bacterial growth by microdilution method; format: functional, organism-based
HepG2 = assay: Cytotoxicity against human HepG2 cells assessed as reduction in cell viability at 100 uM relative to control; format: toxicity, cell-based; conditions: hepg2, 100 µM
HEK293 = assay: Cytotoxicity against human HEK293 cells assessed as reduction in cell viability at 100 uM relative to control; format: toxicity, cell-based; conditions: hek293, 100 µM
A549 = assay: Cytotoxicity against human A549 cells assessed as reduction in cell viability at 100 uM relative to control; format: toxicity, cell-based; conditions: a549, 100 µM
[15] = Toxicity in zebrafish embryo assessed as maximum tolerated concentration measured up to 120 hrs; design: species or system Danio rerio; conditions: in vivo, read-out: MTC
[16] = target: T2, 72 kDa type IV collagenase; assay: Inhibition of human MMP-2
Target sequence in this assay (P08253 whole entry): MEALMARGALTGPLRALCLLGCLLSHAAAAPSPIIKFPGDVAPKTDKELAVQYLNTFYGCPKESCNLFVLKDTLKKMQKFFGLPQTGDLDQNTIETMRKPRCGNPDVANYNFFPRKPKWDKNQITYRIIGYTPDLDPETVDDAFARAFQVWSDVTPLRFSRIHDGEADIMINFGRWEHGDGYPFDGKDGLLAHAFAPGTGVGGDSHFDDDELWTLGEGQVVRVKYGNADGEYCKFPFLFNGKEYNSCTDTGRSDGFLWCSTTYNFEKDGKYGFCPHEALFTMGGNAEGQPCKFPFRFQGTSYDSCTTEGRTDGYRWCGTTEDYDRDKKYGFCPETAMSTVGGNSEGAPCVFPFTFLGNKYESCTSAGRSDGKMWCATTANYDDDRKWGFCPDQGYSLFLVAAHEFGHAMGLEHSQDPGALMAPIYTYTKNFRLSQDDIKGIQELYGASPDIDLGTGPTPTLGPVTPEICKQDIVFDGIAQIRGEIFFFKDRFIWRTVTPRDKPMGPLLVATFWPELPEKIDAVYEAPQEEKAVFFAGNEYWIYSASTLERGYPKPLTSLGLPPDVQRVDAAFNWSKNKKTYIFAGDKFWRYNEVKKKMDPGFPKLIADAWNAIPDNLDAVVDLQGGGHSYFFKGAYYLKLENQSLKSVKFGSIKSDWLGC

[17] = target: T4, Matrix metalloproteinase-14; assay: Inhibition of human MMP-14
Pseudomonas aeruginosa [18] = assay: Inhibition of Pseudomonas aeruginosa quorum sensing system LasB at 100 uM
Enterobacter cloacae [19] = assay: Antibacterial activity against GIM-1 producing Enterobacter cloacae T2218 clinical isolates assessed as inhibition of bacterial growth by microdilution method; format: functional
Escherichia coli [20] = assay: Antibacterial activity against NDM-7 producing Escherichia coli T2239 clinical isolates assessed as inhibition of bacterial growth by microdilution method; format: functional
Klebsiella pneumoniae [21] = assay: Antibacterial activity against NDM-1 producing Klebsiella pneumoniae T2301 clinical isolates assessed as inhibition of bacterial growth by microdilution method; format: functional
Enterobacter cloacae [22] = assay: Antibacterial activity against NDM-1 producing Enterobacter cloacae T2311 clinical isolates assessed as inhibition of bacterial growth by microdilution method; format: functional
Serratia marcescens = assay: Antibacterial activity against NDM-1 producing Serratia marcescens T2352 clinical isolates assessed as inhibition of bacterial growth by microdilution method; format: functional
Escherichia coli [23] = assay: Antibacterial activity against NDM-5 producing Escherichia coli T2351 clinical isolates assessed as inhibition of bacterial growth by microdilution method
Pseudomonas aeruginosa [24] = assay: Antibacterial activity against VIM-1 producing Pseudomonas aeruginosa T2357 clinical isolates assessed as inhibition of bacterial growth by microdilution method; format: functional
Enterobacter cloacae [25] = assay: Antibacterial activity against VIM-1 producing Enterobacter cloacae T2353 clinical isolates assessed as inhibition of bacterial growth by microdilution method; format: functional
Pseudomonas aeruginosa [26] = assay: Antibacterial activity against IMP-1 producing Pseudomonas aeruginosa T2325 clinical isolates assessed as inhibition of bacterial growth by microdilution method
Acinetobacter baumannii = assay: Antibacterial activity against OXA-23 producing Acinetobacter baumannii T2434 clinical isolates assessed as inhibition of bacterial growth by microdilution method; format: functional
Escherichia coli [27] = assay: Antibacterial activity against KPC-2 producing Escherichia coli T2435 clinical isolates assessed as inhibition of bacterial growth by microdilution method; format: functional
Klebsiella pneumoniae [28] = assay: Antibacterial activity against imipenem-resistant NDM-1-producing Klebsiella pneumoniae T2301 infected in Galleria mellonella larvae assessed as survival rate at 0.12 ug injected via proleg measured after 3 days by Kaplan-Meier method; format: functional; conditions: dose 0.12 µg; time 3 day

Structure (SMILES)	IC50 [1] [nM]	IC50 [2] [nM]	IC50 (BlaVIM-1) [nM]	logD [3]	Activity (Escherichia coli [11])	Activity (Escherichia coli [12])	Activity (Escherichia coli [13])	Activity (Pseudomonas aeruginosa [14])	also measured
N=C(N)NS(=O)(=O)c1ccc(NC(=O)CCS)cc1	2100	3300	500	-0.5	inactive	inactive	inactive	inactive	inhibition [4]: < 10%; inhibition [5]: < 10%; inhibition [6]: < 10%; inhibition [7]: < 10%; inhibition [8]: < 10%; inhibition [9]: < 10%; inhibition [10]: 32%; Activity (HepG2): < 10%; Activity (HEK293): < 10%; Activity (A549): < 10%; MNTC at 120 h [15]: ≥ 150 µM
O=C(CCS)Nc1ccc(C(=O)O)cc1	1000	> 10000	600	-1.65	–	–	–	–	–
CC(=O)c1ccc(NC(=O)CCS)cc1	1500	5500	400	1.35	–	–	–	–	–
NCc1cccc(NC(=O)CCS)c1	5500	5100	1000	0.28	inactive	inactive	inactive	inactive	–
COC(=O)c1ccccc1NC(=O)CCS	1300	1000	10000	1.95	–	–	–	–	–
CN(C)S(=O)(=O)c1ccc(NC(=O)CCS)cc1	2800	2100	800	1.7	inactive	inactive	inactive	inactive	–
CN1CCN(Cc2ccc(NC(=O)CCS)cc2)CC1	6400	5800	1500	0.28	–	–	–	–	–
O=C(CCS)Nc1ccc(O)cc1	4000	3400	200	0.32	–	–	–	–	–
CCN(CC)Cc1cccc(NC(=O)CCS)c1	6500	5500	800	0.24	–	–	–	–	–
O=C(CCS)Nc1cccc(O)c1	2700	1400	100	0.41	–	–	–	–	–
Nc1ccc(NC(=O)CCS)cc1	6500	2100	500	-0.31	–	–	–	–	–
NC(=O)NS(=O)(=O)c1ccc(NC(=O)CCS)cc1	8600	12600	2000	-1.69	inactive	inactive	inactive	inactive	inhibition [4]: < 10%; inhibition [5]: 88%; inhibition [6]: < 10%; inhibition [7]: 32%; inhibition [8]: < 10%; inhibition [9]: 73%; inhibition [10]: < 10%; IC50 [16]: 64000 nM; IC50 [17]: 31000 nM; Activity (HepG2): < 10%; Activity (HEK293): < 10%; Activity (A549): < 10%; MNTC at 120 h [15]: ≥ 150 µM; inhibition (Pseudomonas aeruginosa [18]): Active
C[C@@H](O)[C@H]1C(=O)N2C(C(=O)O)=C(SCCNC=N)C[C@H]12 [IMIPENEM ANHYDROUS]	–	–	–	–	–	–	–	–	MIC (Enterobacter cloacae [19]): 2 µg/mL (≈ 6.68 µM); MIC (Escherichia coli [20]): 32 µg/mL (≈ 107 µM); MIC (Klebsiella pneumoniae [21]): 16 µg/mL (≈ 53.4 µM); MIC (Enterobacter cloacae [22]): 8 µg/mL (≈ 26.7 µM); MIC (Serratia marcescens): 256 µg/mL (≈ 855 µM); MIC (Escherichia coli [23]): 8 µg/mL (≈ 26.7 µM); MIC (Pseudomonas aeruginosa [24]): 256 µg/mL (≈ 855 µM); MIC (Enterobacter cloacae [25]): 4 µg/mL (≈ 13.4 µM); MIC (Pseudomonas aeruginosa [26]): 16 µg/mL (≈ 53.4 µM); MIC (Acinetobacter baumannii): 32 µg/mL (≈ 107 µM); MIC (Escherichia coli [27]): 4 µg/mL (≈ 13.4 µM); Activity (Klebsiella pneumoniae [28]): <=25%
O=C(CCS)Nc1cccc(S(=O)(=O)O)c1	1300	3600	1600	-1.35	inactive	inactive	inactive	inactive	–
O=C(CCS)Nc1ccc(Cl)c(Cl)c1	1300	5000	100	5.34	inactive	inactive	inactive	inactive	inhibition [4]: < 10%; inhibition [5]: 14%; inhibition [6]: < 10%; inhibition [7]: < 10%; inhibition [8]: 22%; inhibition [9]: 18%; Activity (HepG2): < 10%; Activity (HEK293): < 10%; Activity (A549): < 10%; inhibition (Pseudomonas aeruginosa [18]): Active
COC(=O)c1ccc(NC(=O)CCS)cc1	2800	1100	100	1.95	–	–	–	–	inhibition (Pseudomonas aeruginosa [18]): Active
CS(=O)(=O)Nc1cccc(NC(=O)CCS)c1	2200	–	1300	0.62	–	–	–	–	–
O=C(CCS)Nc1cccc([N+](=O)[O-])c1	2500	2600	100	2.21	–	–	–	–	–
O=C(CCS)Nc1ccccc1O	2200	3300	200	1.14	–	–	–	–	–
O=C(CCS)Nc1ccc(S(=O)(=O)N2CCOCC2)cc1	2500	7100	1700	1.52	–	–	–	–	–
O=C(O)[C@H]1CCCCN1C(=O)C(CS)Cc1ccccc1 (stereo not given in full)	700	4600	900	0.49	–	–	–	–	–
CS(=O)(=O)Nc1ccccc1NC(=O)CCS	7000	> 10000	1900	1.1	–	–	–	–	–
O=C(CCS)Nc1ccccc1C(=O)O	3400	4100	2200	-0.92	inactive	inactive	inactive	inactive	inhibition [4]: < 10%; inhibition [5]: < 10%; inhibition [6]: 17%; inhibition [7]: 11%; inhibition [8]: < 10%; inhibition [9]: 77%; inhibition [10]: < 10%; IC50 [17]: 12000 nM; Activity (HepG2): < 10%; Activity (HEK293): < 10%; Activity (A549): < 10%; MNTC at 120 h [15]: ≥ 150 µM
